Measurements taken from patent publication US9776995B2, “Bicyclic sulfonamide compounds as sodium channel inhibitors” (AMGEN INC., priority 2013, dated 2017).
pIC50: −log10 of the molar value.
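Note: holding potential set for 20 to 50% inactivation, sodium current evoked by a 20 ms step to −10 mV, peak current inhibition read after compound exposure, 3–5 cells per concentration.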

What follows are compounds tested against Nav 1.7 (Homo sapiens (Human), UniProt Q15858) (assay: Nav 1.7 in vitro PX assay (PatchXpress whole cell voltage clamp)). Details: HEK 293 cells stably transfected with human Nav1.7; PatchXpress; partially inactivated state.
Sequence of Nav 1.7 (Q15858 whole entry): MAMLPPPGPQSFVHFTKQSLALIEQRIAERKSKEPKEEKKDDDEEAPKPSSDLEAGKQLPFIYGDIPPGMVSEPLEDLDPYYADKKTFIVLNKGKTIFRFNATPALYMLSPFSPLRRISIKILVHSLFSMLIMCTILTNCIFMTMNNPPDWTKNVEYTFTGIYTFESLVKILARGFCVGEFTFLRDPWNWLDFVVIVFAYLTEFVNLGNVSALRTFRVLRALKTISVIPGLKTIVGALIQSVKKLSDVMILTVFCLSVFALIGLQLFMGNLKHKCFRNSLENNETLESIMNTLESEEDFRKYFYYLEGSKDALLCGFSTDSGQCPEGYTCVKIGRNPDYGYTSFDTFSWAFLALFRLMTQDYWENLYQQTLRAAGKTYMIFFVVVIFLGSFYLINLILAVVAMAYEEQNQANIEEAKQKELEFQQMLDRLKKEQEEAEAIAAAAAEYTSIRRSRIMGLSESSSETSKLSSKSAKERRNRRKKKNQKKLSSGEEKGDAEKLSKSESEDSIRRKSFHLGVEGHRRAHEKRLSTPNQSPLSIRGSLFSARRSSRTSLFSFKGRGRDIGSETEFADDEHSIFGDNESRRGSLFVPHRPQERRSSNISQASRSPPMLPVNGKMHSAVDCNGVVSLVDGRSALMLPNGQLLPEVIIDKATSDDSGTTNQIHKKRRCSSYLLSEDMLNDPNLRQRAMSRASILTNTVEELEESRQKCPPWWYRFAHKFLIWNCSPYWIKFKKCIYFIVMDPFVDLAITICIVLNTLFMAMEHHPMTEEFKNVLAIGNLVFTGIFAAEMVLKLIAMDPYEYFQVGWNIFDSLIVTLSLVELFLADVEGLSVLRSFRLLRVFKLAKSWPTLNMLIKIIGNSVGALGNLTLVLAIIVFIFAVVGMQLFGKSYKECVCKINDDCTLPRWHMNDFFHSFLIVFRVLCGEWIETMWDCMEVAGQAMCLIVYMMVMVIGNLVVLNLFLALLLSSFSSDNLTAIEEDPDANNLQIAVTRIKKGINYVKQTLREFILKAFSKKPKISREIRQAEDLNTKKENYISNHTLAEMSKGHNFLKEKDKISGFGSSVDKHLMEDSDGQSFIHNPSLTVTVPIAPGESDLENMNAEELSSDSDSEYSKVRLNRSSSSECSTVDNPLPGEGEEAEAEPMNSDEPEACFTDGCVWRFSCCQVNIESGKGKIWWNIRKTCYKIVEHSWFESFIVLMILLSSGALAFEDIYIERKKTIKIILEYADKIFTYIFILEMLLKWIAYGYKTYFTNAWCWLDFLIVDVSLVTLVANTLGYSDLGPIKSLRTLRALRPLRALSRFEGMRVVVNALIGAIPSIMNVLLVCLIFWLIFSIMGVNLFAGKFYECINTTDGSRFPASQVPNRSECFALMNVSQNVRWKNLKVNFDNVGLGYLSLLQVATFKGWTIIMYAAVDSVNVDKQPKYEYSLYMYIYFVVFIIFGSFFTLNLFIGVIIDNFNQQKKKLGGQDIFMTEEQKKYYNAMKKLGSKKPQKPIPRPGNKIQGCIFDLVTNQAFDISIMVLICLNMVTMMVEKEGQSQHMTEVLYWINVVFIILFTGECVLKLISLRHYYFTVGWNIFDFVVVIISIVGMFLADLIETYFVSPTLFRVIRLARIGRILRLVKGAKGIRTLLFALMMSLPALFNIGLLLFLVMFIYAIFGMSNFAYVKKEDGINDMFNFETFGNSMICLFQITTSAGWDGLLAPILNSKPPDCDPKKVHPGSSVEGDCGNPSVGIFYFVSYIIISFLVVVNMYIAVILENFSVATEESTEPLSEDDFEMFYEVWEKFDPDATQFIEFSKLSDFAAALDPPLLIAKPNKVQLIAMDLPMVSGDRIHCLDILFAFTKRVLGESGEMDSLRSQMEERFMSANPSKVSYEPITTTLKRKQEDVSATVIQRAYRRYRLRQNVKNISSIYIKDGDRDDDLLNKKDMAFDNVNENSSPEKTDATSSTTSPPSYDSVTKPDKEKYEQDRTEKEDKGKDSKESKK
Assay type: cell-based
COc1cc(-c2cccc(C(F)(F)F)c2)c(F)cc1-c1c2ccc(S(=O)(=O)Nc3ccon3)cc2cc(=O)n1C (atropisomer, axis not shown; (M)) [Example 552, (M)-1-(2-fluoro-5-methoxy-3′-(trifluoromethyl)-4-biphenylyl)-N-3-isoxazolyl-2-methyl-3-oxo-2,3-dihydro-6-isoquinolinesulfonamide] was tested, and the pIC50 was 5.90. COc1cc(-c2cccc(Cl)c2)c(C)cc1-c1ncnc2cc(S(=O)(=O)Nc3ncccn3)ccc12 [Example 440, 4-(3′-CHLORO-5-METHOXY-2-METHYL-[1,1′-BIPHENYL]-4-YL)-N-(PYRIMIDIN-2-YL)QUINAZOLINE-7-SULFONAMIDE] gave a pIC50 of 7.19. Work on COc1cc(-c2c(F)cccc2F)c(C)cc1-c1ncnc2cc(S(=O)(=O)Nc3ccon3)ccc12 [Example 565, 4-(2′,6′-difluoro-5-methoxy-2-methyl-4-biphenylyl)-N-3-isoxazolyl-7-quinazolinesulfonamide] yielded a pIC50 of 6.70. For COc1cc(-c2cccc(C(F)(F)F)c2)c(F)cc1-c1c2ccc(S(=O)(=O)Nc3ccon3)cc2cc(=O)n1C [Example 546, 1-(2-fluoro-5-methoxy-3′-(trifluoromethyl)-4-biphenylyl)-N-3-isoxazolyl-2-methyl-3-oxo-2,3-dihydro-6-isoquinolinesulfonamide], the pIC50 was 7.54. COc1cc(-c2cccc(F)c2)c(Cl)cc1-c1c(C)nnc2cc(S(=O)(=O)Nc3ccon3)ccc12 (atropisomer, axis not shown; (P)) [Example 442, (P)-4-(2-chloro-3′-fluoro-5-methoxy-[1,1′-biphenyl]-4-yl)-N-(isoxazol-3-yl)-3-methylcinnoline-7-sulfonamide] gave a pIC50 of 6.60. With COc1cc(-c2cc(F)cc(Cl)c2)c(F)cc1-c1cn(C)c(=O)c2cc(S(=O)(=O)Nc3ccon3)ccc12 [Example 453, 4-(3′-CHLORO-2,5′-DIFLUORO-5-METHOXY-[1,1′-BIPHENYL]-4-YL)-N-(ISOXAZOL-3-YL)-2-METHYL-1-OXO-1,2-DIHYDROISOQUINOLINE-7-SULFONAMIDE] the pIC50 was 7.32. CCc1nnc2cc(S(=O)(=O)Nc3ccon3)ccc2c1-c1cc(Cl)c(-c2cccc(F)c2)cc1OC (atropisomer, axis not shown; (P)) [Example 444, (P)-4-(2-chloro-3′-fluoro-5-methoxy-[1,1′-biphenyl]-4-yl)-3-ethyl-N-(isoxazol-3-yl)cinnoline-7-sulfonamide] showed a pIC50 of 5.93. With COc1cc(-c2cc(F)cc(Cl)c2)c(F)cc1-c1c[nH]c(=O)c2cc(S(=O)(=O)Nc3ccon3)ccc12 [Example 451, 4-(3′-CHLORO-2,5′-DIFLUORO-5-METHOXY-[1,1′-BIPHENYL]-4-YL)-N-(ISOXAZOL-3-YL)-1-OXO-1,2-DIHYDROISOQUINOLINE-7-SULFONAMIDE] the pIC50 was 7.11. In the case of CCOc1ccc(-c2cc(OC)c(-c3ncnc4cc(S(=O)(=O)Nc5ccon5)ccc34)cc2F)cc1C [Example 535, 4-(4′-ethoxy-2-fluoro-5-methoxy-3′-methyl-4-biphenylyl)-N-3-isoxazolyl-7-quinazolinesulfonamide], the pIC50 was 6.21. In the case of COc1cc(-c2cccc(F)c2F)c(C)cc1-c1ncnc2cc(S(=O)(=O)Nc3ccon3)ccc12 [Example 562, 4-(2′,3′-difluoro-5-methoxy-2-methyl-4-biphenylyl)-N-3-isoxazolyl-7-quinazolinesulfonamide], the pIC50 was 7.05. COc1cc(-c2ccc(Cl)c(C)c2)c(F)cc1-c1[nH]c(=O)cc2cc(S(=O)(=O)Nc3ccon3)ccc12 [Example 548, 1-(4′-chloro-2-fluoro-5-methoxy-3′-methyl-4-biphenylyl)-N-3-isoxazolyl-3-oxo-2,3-dihydro-6-isoquinolinesulfonamide] showed a pIC50 of 7.80. In the case of COc1cc(-c2ccc(C(F)(F)F)cc2)c(F)cc1-c1nccc2cc(S(=O)(=O)Nc3ccon3)ccc12 [Example 539, 1-(2-fluoro-5-methoxy-4′-(trifluoromethyl)-4-biphenylyl)-N-3-isoxazolyl-6-isoquinolinesulfonamide], the pIC50 was 6.63. COc1cc(-c2cccc(F)c2)c(Cl)cc1-c1c(OC)nnc2cc(S(=O)(=O)Nc3ccon3)ccc12 [Example 445, 4-(2-CHLORO-3′-FLUORO-5-METHOXY-[1,1′-BIPHENYL]-4-YL)-N-(ISOXAZOL-3-YL)-3-METHOXYCINNOLINE-7-SULFONAMIDE] was tested, and the pIC50 was 6.97.

Same assay, conditions: PatchXpress (PX)
In the case of COc1cc(-c2cccc(F)c2)c(Cl)cc1-c1nnc(OC)c2cc(S(=O)(=O)Nc3ccon3)ccc12 [Example 55, 1-(2-CHLORO-3′-FLUORO-5-METHOXY-[1,1′-BIPHENYL]-4-YL)-N-(ISOXAZOL-3-YL)-4-METHOXYPHTHALAZINE-6-SULFONAMIDE], the pIC50 was 7.49. With COc1cc(Cl)c(C)cc1-c1nccc2cc(S(=O)(=O)Nc3ccon3)ccc12 [Example 248, 1-(4-chloro-2-methoxy-5-methylphenyl)-N-3-isoxazolyl-6-isoquinolinesulfonamide] the pIC50 was 6.73. In the case of COc1cc(Cl)c(C)cc1-c1ncnc2cc(S(=O)(=O)Nc3ccon3)ccc12 [Example 247, 4-(4-chloro-2-methoxy-5-methylphenyl)-N-3-isoxazolyl-7-quinazolinesulfonamide], the pIC50 was 6.61. COc1cc(-c2ccc(C)c(Cl)c2)c(C)cc1-c1ncnc2cc(S(=O)(=O)Nc3ccon3)ccc12 [Example 267, 4-(3′-chloro-5-methoxy-2,4′-dimethyl-4-biphenylyl)-N-3-isoxazolyl-7-quinazolinesulfonamide] was tested, and the pIC50 was 7.54. Work on COc1cc(-c2cc(F)cc(F)c2)c(Cl)cc1-c1nncc2cc(S(=O)(=O)Nc3ccsn3)ccc12 [Example 256, 1-(2-chloro-3′,5′-difluoro-5-methoxy-4-biphenylyl)-N-3-isothiazolyl-6-phthalazinesulfonamide] yielded a pIC50 of 7.07. For COc1cc(-c2cc(F)cc(F)c2)c(C)cc1-c1nccc2cc(S(=O)(=O)Nc3ccon3)ccc12 [Example 272, 1-(3′,5′-difluoro-5-methoxy-2-methyl-4-biphenylyl)-N-3-isoxazolyl-6-isoquinolinesulfonamide], the pIC50 was 7.50. COc1cc(-c2ccc(Cl)c(C)c2)c(Cl)cc1-c1nncc2cc(S(=O)(=O)Nc3ccsn3)ccc12 [Example 255, 1-(2,4′-dichloro-5-methoxy-3′-methyl-4-biphenylyl)-N-3-isothiazolyl-6-phthalazinesulfonamide] was tested, and the pIC50 was 6.49.

Same assay, conditions: in-vitro Nav 1.7 PX (PatchXpress)
With COc1cc(-c2cc(F)cc(C3CC3)c2)c(C)cc1-c1ncnc2cc(S(=O)(=O)Nc3ccon3)ccc12 [Example 306, 4-(3′-cyclopropyl-5′-fluoro-5-methoxy-2-methyl-4-biphenylyl)-N-3-isoxazolyl-7-quinazolinesulfonamide] the pIC50 was 7.21. Compound COc1cc(-c2cc(C)c(Cl)c(F)c2)c(F)cc1-c1ncnc2cc(S(=O)(=O)Nc3ccon3)ccc12 [Example 295, 4-(4′-chloro-2,3′-difluoro-5-methoxy-5′-methyl-4-biphenylyl)-N-3-isoxazolyl-7-quinazolinesulfonamide] has a pIC50 of 7.23. COc1cc(-c2cccc(F)c2)c(Cl)cc1-c1cn(C)c2cc(S(=O)(=O)Nc3ccon3)ccc12 [Example 57, 3-(2-CHLORO-3′-FLUORO-5-METHOXY-[1,1′-BIPHENYL]-4-YL)-N-(ISOXAZOL-3-YL)-1-METHYL-1H-INDOLE-6-SULFONAMIDE] was tested, and the pIC50 was 4.89. COc1cc(-c2cc(C)cc(Cl)c2)c(C)cc1-c1nccc2cc(S(=O)(=O)Nc3ccon3)ccc12 [Example 283, 1-(3′-chloro-5-methoxy-2,5′-dimethyl-4-biphenylyl)-N-3-isoxazolyl-6-isoquinolinesulfonamide] was tested, and the pIC50 was 7.43. COc1cc(-c2cc(C)cc(F)c2)c(F)cc1-c1ncnc2cc(S(=O)(=O)Nc3ccon3)ccc12 [Example 301, 4-(2,3′-difluoro-5-methoxy-5′-methyl-4-biphenylyl)-N-3-isoxazolyl-7-quinazolinesulfonamide] was tested, and the pIC50 was 7.49. Work on COc1cc(-c2cc(F)cc(Cl)c2)c(Cl)cc1-c1ncnc2cc(S(=O)(=O)Nc3ccon3)ccc12 [Example 310, 4-(2,3′-dichloro-5′-fluoro-5-methoxy-4-biphenylyl)-N-3-isoxazolyl-7-quinazolinesulfonamide] yielded a pIC50 of 7.35. COc1cc(-c2cccc(F)c2)c(Cl)cc1-c1ncnc2cc(S(=O)(=O)Nc3ncc(F)cn3)ccc12 [Example 289, 4-(2-chloro-3′-fluoro-5-methoxy-4-biphenylyl)-N-(5-fluoro-2-pyrimidinyl)-7-quinazolinesulfonamide] gave a pIC50 of 7.05. COc1ccc(Cl)cc1-c1cc(OC)c(-c2nccc3cc(S(=O)(=O)Nc4ccon4)ccc23)cc1C [Example 281, 1-(5′-chloro-2′,5-dimethoxy-2-methyl-4-biphenylyl)-N-3-isoxazolyl-6-isoquinolinesulfonamide] was tested, and the pIC50 was 7.79. Compound COc1cc(-c2ccc(F)c(C3CC3)c2)c(C)cc1-c1ncnc2cc(S(=O)(=O)Nc3ccon3)ccc12 [Example 63, 4-(3′-CYCLOPROPYL-4′-FLUORO-5-METHOXY-2-METHYL-[1,1′-BIPHENYL]-4-YL)-N-(ISOXAZOL-3-YL)QUINAZOLINE-7-SULFONAMIDE] has a pIC50 of 7.47. With COc1cc(-c2ccc(Cl)c(F)c2)ccc1-c1nccc2cc(S(=O)(=O)Nc3ncccn3)ccc12 [Example 293, 1-(4′-chloro-3′-fluoro-3-methoxy-4-biphenylyl)-N-2-pyrimidinyl-6-isoquinolinesulfonamide] the pIC50 was 6.39. COc1cc(-c2cc(C)cc(Cl)c2)c(F)cc1-c1ncnc2cc(S(=O)(=O)Nc3ccon3)ccc12 [Example 297, 4-(3′-chloro-2-fluoro-5-methoxy-5′-methyl-4-biphenylyl)-N-3-isoxazolyl-7-quinazolinesulfonamide] was tested, and the pIC50 was 7.13. COc1cc(-c2cc(Cl)ccc2F)c(C)cc1-c1ncnc2cc(S(=O)(=O)Nc3ccon3)ccc12 [Example 308, 4-(5′-chloro-2′-fluoro-5-methoxy-2-methyl-4-biphenylyl)-N-3-isoxazolyl-7-quinazolinesulfonamide] was tested, and the pIC50 was 7.25. COc1cc(-c2ccc(Cl)c(C)c2)ccc1-c1nccc2cc(S(=O)(=O)Nc3ccon3)ccc12 [Example 288, 1-(4′-chloro-3-methoxy-3′-methyl-4-biphenylyl)-N-3-isoxazolyl-6-isoquinolinesulfonamide] gave a pIC50 of 7.11. With COc1cc(-c2ccc(OCC(F)(F)F)nc2)ccc1-c1nccc2cc(S(=O)(=O)Nc3ccon3)ccc12 [Example 303, N-3-isoxazolyl-1-(2-methoxy-4-(6-(2,2,2-trifluoroethoxy)-3-pyridinyl)phenyl)-6-isoquinolinesulfonamide] the pIC50 was 6.32.
